Laboratory results as given in patent publication US7820865B2, “Photolatent systems” (Ciba Corporation, priority 2005, dated 2010).

Row | Compound | melting point
1 | CCOCC(=O)c1cc(C(C)C)c(O)c(C(C)C)c1 | 97 to 98 °C
2 | COc1cc(C=O)ccc1OCC(=O)c1cc(C(C)(C)C)c(O)c(C(C)(C)C)c1 [Compound 101, 4-[2-(3,5-di-tert-butyl-4-hydroxyphenyl)-2-oxo-ethoxy]-3-methoxy-benzaldehyde] | 99 to 100 °C
3 | COc1cc(C=O)ccc1OCC(=O)c1cc(C2CCCCC2)c(O)c(C2CCCCC2)c1 [Compound 103, 4-[2-(3,5-di-cyclohexyl-4-hydroxyphenyl)-2-oxo-ethoxy]-3-methoxy-benzaldehyde] | 163 to 164 °C
4 | CC(C)(C)c1cc(C(=O)COc2ccc(Cl)cc2Oc2ccc(Cl)cc2Cl)cc(C(C)(C)C)c1O [Compound 104, 2-[4-chloro-2-(2,4-dichloro-phenoxy)-phenoxy]-1-(3,5-di-tert-butyl-4-hydroxyphenyl)-ethanone] | 111 to 114 °C
5 | Cc1ccc(OCC(=O)c2cc(C(C)C)c(O)c(C(C)C)c2)cc1 [Compound 105, 1-(4-hydroxy-3,5-di-isopropylphenyl)-2-p-tolyloxy-ethanone] | 124 to 125 °C
6 | CCC(C)(C)c1cc(C(=O)COc2ccc(C=O)cc2OC)cc(C(C)(C)CC)c1O [Compound 107, 4-{2-[3,5-bis(1,1-dimethyl-propyl)-4-hydroxy-phenyl]-2-oxo-ethoxy}-3-methoxy-benzaldehyde] | 106 to 107 °C
7 | CC(C)=CCC/C(C)=C/COCC(=O)c1cc(C(C)C)c(O)c(C(C)C)c1 [Compound 108, 2-[(E)-3,7-dimethyl-octa-2,6-dienyloxy]-1-(4-hydroxy-3,5-di-isopropyl-phenyl)-ethanone] | 70 to 71 °C
8 | CC(C)=CCCC(C)CCOCC(=O)c1cc(C(C)C)c(O)c(C(C)C)c1 (centres unmarked) [Compound 109, 2-(3,7-dimethyl-oct-6-enyloxy]-1-(4-hydroxy-3,5-di-isopropyl-phenyl)-ethanone] | 37 to 39 °C
9 | CC(C)c1cc(C(=O)CO[C@@H]2C[C@H](C)CC[C@H]2C(C)C)cc(C(C)C)c1O [Compound 110, 1-(4-hydroxy-3,5-di-isopropylphenyl)-2-[(1R,2S,5R)-2-isopropyl-5-methyl-cyclohexyloxy]-ethanone] | 83 to 84 °C
10 | CCOCC(=O)c1cc(C(C)(C)C)c(O)c(C(C)(C)C)c1 [Compound 113, 2-ethoxy-1-(4-hydroxy-3,5-di-tert-butylphenyl)-ethanone] | 73 to 75 °C
11 | CCOC(C)C(=O)c1cc(C(C)(C)C)c(O)c(C(C)(C)C)c1 (centres unmarked) [Compound 115, 1-(3,5-di-tert-butyl-4-hydroxyphenyl)-2-ethoxy-propan-1-one] | 64 °C
12 | CC(C)=CCC/C(C)=C/COCC(=O)c1cc(C(C)(C)C)c(O)c(C(C)(C)C)c1 [Compound 116, 1-(3,5-di-tert-butyl-4-hydroxyphenyl)-2-[(E)-3,7-dimethyl-octa-2,6-dienyloxy]-ethanone] | 50 °C
13 | CC(C)c1cc(C(=O)CI)cc(C(C)C)c1O [Compound 201, 1-(4-hydroxy-3,5-di-isopropylphenyl)-2-iodo-ethanone] | 127 to 128 °C
14 | CC(C)(C)c1cc(C(=O)CI)cc(C(C)(C)C)c1O [Compound 202, 1-(4-hydroxy-3,5-di-tert-butylphenyl)-2-iodo-ethanone] | 88 to 89 °C
15 | O=C(CI)c1cc(C2CCCCC2)c(O)c(C2CCCCC2)c1 [Compound 203, 1-(4-hydroxy-3,5-di-cyclohexyphenyl)-2-iodo-ethanone] | 183 to 185 °C
16 | CCC(C)(C)c1cc(C(=O)CI)cc(C(C)(C)CC)c1O [Compound 204, 1-(3,5-bis(1,1-dimethylpropyl)-4-hydroxyphenyl)-2-iodo-ethanone] | 76 to 77 °C
17 | CC(I)C(=O)c1cc(C(C)(C)C)c(O)c(C(C)(C)C)c1 (centres unmarked) [Compound 205, 1-(4-hydroxy-3,5-tert-butylphenyl)-2-iodo-propane-1-one] | 141 °C
